Laboratory results reported in PMC12463120, “Phenylalanine‐Based DNA‐Encoded Chemical Libraries for the Discovery of Potent and Selective Small Organic Ligands Against Markers of Cancer and Immune Cells” (Advanced Science, 2025).
Entries after “also recorded” stand apart in the source; their conditions may differ.

System: NK-92 cells
Experiment: In vitro interferon-gamma release assay on NK-92 cells
Assay type: cell-based, human
Conditions: serial dilution from 7.5 µM, 24 h
Experimental: plate (20 µL/well). Test compounds (300 nM, in 175 µL of FACS buffer) were added to the wells containing the beads. Plates were further incubated in the dark at room temperature for 1 hour and subsequently centrifuged at 2’500 rpm at 4 °C for 3 min. Beads were washed and resuspended in FACS buffer (200 µL). Data were acquired halting the measurement at 10’000 events on a Cytoflex S flow cytometer (Beckman Coulter) and analyzed using the FlowJo software v10 (BD Biosciences).
2.19 In vitro interferon-gamma release assay
Compounds 26 and 30 were tested for their ability to induce interferon-gamma (IFN-γ) release upon incubation with NK-cells. NK-92 cells were initially starved for 4 h in plain RPMI medium. […] After 24 h, cell-free supernatants were collected, and the concentration of IFN-γ was measured using the ELISA MAXTM Set Human IFN-γ kit (BioLegend). […]
The sections were blocked with 20% FCS (Invitrogen) and 3% BSA in PBS (pH 7.4) for 30 min and washed three times with PBS (pH 7.4). […] Images were recorded on a CR-35 Bio scanner and processed with the AIDA image analysis […]
2.21 Quantitative in vivo biodistribution studies […]
Figure S39. […] After 24 hours of incubation, IFN-γ levels in the culture supernatant were measured by ELISA. […]

In the case of `CC(C)Oc1ccc(-c2cccc(C[C@H](NC(=O)c3ccccc3-c3ccc(C(F)(F)F)cc3)C(=O)N[C@@H](CCCCNC(=S)Nc3ccc4c(c3)C(=O)OC43c4ccc(O)cc4Oc4cc(O)ccc43)C(=O)O)c2)c(F)c1` [compound 30], the “IFN-γ release by NK-92 cells” value is reported as “did not induce IFN-γ release; also recorded: not found to induce the release”.
